Source: patent US6878715B1, “Therapeutic compounds for inhibiting interleukin-12 signals and method for using same” (Cell Therapeutics, Inc., priority 1994, dated 2005)

What follows are molecules tested on IL-12 induced IFN-γ secretion (assay: IL-12 induced IFN-γ secretion (interferon gamma induction) assay in splenocyte culture). Details: compound added to a culture of splenocytes; FIG. 1.
Type: cell-based
Experimental: The ability of IL-12 to induce generation of Th1 cells is aided by IFN-γ, a cytokine which is known to be induced by IL-12 itself. (R)-3-(N-biotinyl-6-aminohexyl)-1-(5-hydroxyhexyl)-7-methylxanthine (CT12460) and (R)-3-(N-biotinyl-2-aminoethyl)-1-(5-hydroxyhexyl)-7-methylxanthine (CT13410) were tested in an interferon gamma (IFN-γ) induction assay as described in Kobayashi, M., et al., “Identification and Purification of Natural Killer Cell Stimulatory Factor (NKSF), A Cytokine with Multiple Biologic Effects on Human Lymphocytes,” J. Exp. Med.U., 170:827-845 (at 829, 830 and 836) (1989). See also, Wolf, S., et al., “Interluekin 12: A Key Modulator of Immune Function,” Stem Cells, 12:154-168 (1994) and Trinchieri, supra.

For C[C@@H](O)CCCCn1c(=O)c2c(ncn2C)n(CCCCCCNC(=O)CCCC[C@@H]2SC[C@@H]3NC(=O)N[C@@H]32)c1=O [CT12460, (R)-3-(6-biotinylamidohexyl)-1-(5-hydroxyhexyl)-7-methylxanthine], the “IL-12 induced IFN-γ secretion” value was “inhibited”.
C[C@@H](O)CCCCn1c(=O)c2c(ncn2C)n(CCNC(=O)CCCC[C@@H]2SC[C@@H]3NC(=O)N[C@@H]32)c1=O [CT13410, (R)-3-(6-biotinylamidoethyl)-1-(5-hydroxyhexyl)-7-methylxanthine] was tested, and the “IL-12 induced IFN-γ secretion” value was “inhibited”.

These molecules were tested on GVHD (assay: Graft-versus-host disease (GVHD) model). Details: bid, by gavage, first 5 days; assessed over 36 days after adoptive transfer of cells; vs vehicle control; FIG. 3.
Type: in vivo
Experimental: In a GVHD model, an irradiated F1 hybrid recipient population, bred across a parental major H2 mismatch, was infused with maternal cells activated in vitro with conconavalian A (Con A) and IL-12. LSF and the compound of Example 7 (CT12441) were compared with a vehicle control for efficacy. Both compounds were administered on a bid schedule, by gavage, for the first 5 days.

In the case of CNCc1nc2c([nH]1)c(=O)n(CCCC[C@@H](C)O)c(=O)n2C [CT12441, (R)-1-(5-hydroxyhexyl)-3-methyl-8-(N-methyl)aminomethylxanthine], the survival is reported as “significant increase of survival”.
In the case of C[C@@H](O)CCCCn1c(=O)c2c(ncn2C)n(C)c1=O [LSF, (R)-1-(5-Hydroxyhexyl)-3,7-dimethylxanthine, reference compound], the survival is reported as “significant increase of survival”.

These molecules were tested on adoptive transfer EAE (assay: Adoptive transfer experimental allergic encephalomyelitis (EAE) model). Details: bid, by gavage, first 5 days; vs vehicle only; FIG. 2.
Type: in vivo, mice
Experimental: An adoptive transfer experimental allergic encephalomyelitis (EAE) model was used, in which the splenic T cells from actively immunized mice were cultured for 4 days in antigen-containing (myelin basic protein) medium. The cells were then transferred to naive recipients, which were then evaluated for clinical changes in motor nerve function in the presence or absence of treatment with LSF or the compound of Example 22 (CT11558). Both compounds were administered on a bid schedule, by gavage, for the first 5 days.

For C[C@H](CCCCn1c(=O)c2c(ncn2C)n(C)c1=O)N(C)C [CT11558, (R)-1-(5-N,N-dimethylaminohexyl)-3,7-dimethylxanthine], the “magnitude of observable clinical deficits (motor nerve function)” value was “decrease in the magnitude”.
In the case of C[C@@H](O)CCCCn1c(=O)c2c(ncn2C)n(C)c1=O [LSF, (R)-1-(5-Hydroxyhexyl)-3,7-dimethylxanthine, reference compound], the “magnitude of observable clinical deficits (motor nerve function)” value is reported as “decrease in the magnitude”.

For C[C@H](CCCCn1c(=O)c2c(ncn2C)n(C)c1=O)N(C)C [CT11558, (R)-1-(5-N,N-dimethylaminohexyl)-3,7-dimethylxanthine], the “onset of observable clinical deficits (motor nerve function)” value was “significant delay in the onset”.
With C[C@@H](O)CCCCn1c(=O)c2c(ncn2C)n(C)c1=O [LSF, (R)-1-(5-Hydroxyhexyl)-3,7-dimethylxanthine, reference compound] the “onset of observable clinical deficits (motor nerve function)” value was “significant delay in the onset”.

What follows are molecules tested on IL-12 induced Th1 differentiation (splenic T cells) (assay: IL-12 dependent in vitro T-helper cell (Th1) differentiation assay, IFN-γ production upon secondary anti-CD3 stimulation). Details: read-out: IC50, inhibition of IL-12 induced Th1 differentiation as defined by IFN-γ production.
Type: cell-based
Experimental: This example illustrates the inventive compounds' ability to suppress Th1 differentiation in vitro by blocking IL-12 signalling. Each of compounds A through Y were tested in an IL-12 dependent in vitro T-helper cell differentiation assay as described in LeGross et al., J. Exp. Med., 172:921-929 (1990). Recombinant IL-12 was used to induce Th1 differentiation. Spenic T cells were purified utilizing the antibodies RA3-3A1/6.1 (anti-B220), J11d and MAR18.5 (anti-rat kappa chain) to deplete the B cells via complement mediated toxicity following the procedure set forth in Klaus et al., J. Immunol., 149:1867-1875 (1992). Splenic T cells were stimulated at 5×10^5/ml with insoluble anti-CD3 alone (145-2C11, Pharmingen, San Diego, Calif.), or anti-CD3 and 5 U/ml IL-12, with and without each inventive compound. After seven days, equal numbers of viable cells were restimulated for 24 hours with anti-CD3 without the inventive compounds, and the supernatants were collected and assayed for IFN-γ production. IFN-γ and IL-4 levels were measured by Interest kits from Genzyme specific for IFN-γ and IL-4.
Th1 differentiation was induced by culturing anti-CD3 stimulated T cells in the presence of exogenous IL-12. […] The values in the “IC50 μM” column were determined by measuring the inhibition of IL-121 induced Th1 differentiation as defined by IFN-γ production upon secondary stimulation with anti-CD3 alone. None of the compounds affected the viability or recovery of T cells after one week of culture.

CNc1nc2c([nH]1)c(=O)n(CCCC[C@@H](C)O)c(=O)n2C [CT12447, (R)-1-(5-hydroxyhexyl)-3-methyl-8-methylaminoxanthine] and C[C@@H](O)CCCCn1c(=O)c2[nH]c(=O)[nH]c2n(C)c1=O [CT12452, (R)-1-(5-hydroxyhexyl)-3-methyluric acid] are within 1.5-fold of each other in IC50: 25 µM for the first, 35 µM for the second.

Same assay, conditions: splenic T cells, anti-CD3 and 5 U/ml IL-12, seven days with compound, restimulated 24 hours with anti-CD3 alone, read-out: IC50, inhibition of IL-12 induced Th1 differentiation as defined by IFN-γ production

First: CC(CCCCn1c(=O)c2c(ncn2C)n(C)c1=O)NO (centres unmarked) [CT7549, 1-(5-(N-Hydroxy)aminohexyl)-3,7-dimethylxanthine]
Second: C[C@@H](O)CCCCn1c(=O)n(C)c(=O)c2c1ncn2C [CT11495, (R)-3-(5-Hydroxyhexyl)-1,7-dimethylxanthine]
The IC50 of the first is 1.7-fold lower: 21 µM for the first, 35 µM for the second.

C[C@@H](O)CCCCn1c(=O)c2c([nH]c(=O)n2C)n(C)c1=O [CT11499, (R)-1-(5-Hydroxyhexyl)-3,7-dimethyluric acid] and CNc1nc2c(c(=O)n(CCCC[C@@H](C)O)c(=O)n2C)n1C [CT12481, (R)-3,7-dimethyl-1-(5-hydroxyhexyl)-8-N-methylaminoxanthine] are within 1.5-fold of each other in IC50: 30 µM for the first, 24.7 µM for the second.

Going from C[C@@H](O)CCCCn1c(=O)c2c(ncn2Cc2ccccc2)n(C)c1=O [CT12404] to C[C@H](O)CCCCn1c(=O)c2c(ncn2Cc2ccccc2)n(C)c1=O [CT22404, (S)-1-(5-Hydroxyhexyl)-7-benzyl-3-methylxanthine], the IC50 falls from 28 µM to 10 µM (2.8-fold).

Going from Cc1nc2c(c(=O)n(CCCC[C@@H](C)O)c(=O)n2C)n1Cc1ccccc1 [CT12407, (R)-1-(5-hydroxyhexyl)-7-benzyl-3,8-dimethylxanthine] to C[C@@H](O)CCCCn1c(=O)c2c(nnn2C)n(C)c1=O [CT12464, (R)-3,7-dimethyl-1-(5-hydroxyhexyl)-8-azaxanthine], the IC50 falls from 30 µM to 12 µM (2.5-fold).

Going from C[C@@H](O)CCCCn1c(=O)c2c(ncn2C)n(Cc2ccco2)c1=O [CT12422, (R)-3-(2-Furylmethyl)-1-(5-hydroxyhexyl)-7-methylxanthine] to C[C@H](CCCCn1c(=O)c2c(ncn2C)n(C)c1=O)OP(=O)(O)O [CT17557], the IC50 falls from 19 µM to 9 µM (2.1-fold).

Going from C[C@@H](O)CCCCn1c(=O)c2[nH]c(CN)nc2n(C)c1=O [CT12440, (R)-8-Aminomethyl-1-(5-hydroxyhexyl)-3-methylxanthine] to CNCc1nc2c([nH]1)c(=O)n(CCCC[C@@H](C)O)c(=O)n2C [CT12441, (R)-1-(5-hydroxyhexyl)-3-methyl-8-(N-methyl)aminomethylxanthine], the IC50 rises from 9 µM to 19 µM (2.1-fold).

First: Cc1cn(C)c2c1c(=O)n(CCCC[C@@H](C)O)c(=O)n2C [CT12458, (R)-3-(5-Hydroxyhexyl)-1,7,9-dimethyl-2,4-pyrrolo[2,3-d]pyrimidinedione]
Second: Cc1c[nH]c2c1c(=O)n(CCCC[C@@H](C)O)c(=O)n2C [CT12459, (R)-1,9-dimethyl-3-(5-hydroxyhexyl)-2,4-pyrrolo[2,3-d]pyrimidinedione]
The IC50 of the first is 1.6-fold higher: 27 µM for the first, 17 µM for the second.

Going from C[C@@H](O)CCCCn1c(=O)c2c(ncn2C)n(CCCCCCNC(=O)CCCC[C@@H]2SC[C@@H]3NC(=O)N[C@@H]32)c1=O [CT12460, (R)-3-(6-biotinylamidohexyl)-1-(5-hydroxyhexyl)-7-methylxanthine] to C[C@@H](O)CCCCn1c(=O)c2c(nc(N(C)C)n2C)n(C)c1=O [CT12485, (R)-3,7-Dimethyl-8-N,N-dimethylamino-1-(5-hydroxyhexyl)-xanthine], the IC50 falls from 21.8 µM to 10 µM (2.2-fold). The second is the more potent here.

C[C@@H](O)CCCCn1c(=O)c2nsnc2n(C)c1=O [CT12461, (R)-3-(5-hydroxyhexyl)-1-methyl-[1,2,5]thiadiazolo[3,4]pyrimidine-2,4-dione] and C[C@@H](O)CCCCn1c(=O)c2nn(C)nc2n(C)c1=O [CT12465, (R)-3,8-Dimethyl-1-(5-hydroxyhexyl)-8-azaxanthine] are within 1.5-fold of each other in IC50: 17 µM for the first, 15 µM for the second.

C[C@@H](O)CCCCn1c(=O)c2[nH]nnc2n(C)c1=O [CT12463, (R)-1-(5-Hydroxyhexyl)-3-methyl-8-azaxanthine] and C[C@H](O)CCCCn1c(=O)c2c(nnn2C)n(C)c1=O [CT22464, (S)-3,7-Dimethyl-1-(5-hydroxyhexyl)-8-azaxanthine] are within 1.5-fold of each other in IC50: 31 µM for the first, 30 µM for the second.

CSc1nc2c([nH]1)c(=O)n(CCCC[C@@H](C)O)c(=O)n2C [CT12490, (R)-1-(5-Hydroxyhexyl)-3-methyl-8-methylsulfanylxanthine] and C[C@H](O)CCCCn1c(=O)c2nn(C)nc2n(C)c1=O [CT22465, (S)-3,8-dimethyl-1-(5-hydroxyhexyl)-8-azaxanthine] are within 1.5-fold of each other in IC50: 20 µM for the first, 14 µM for the second.
